# Laboratory results taken from PubChem BioAssay AID1259407 (Chemical Carcinogenesis Research Information System (CCRIS), 2018).
# Activity calls are given as the source filed them. No rule for the calls is given here.
# Tested on: CCRIS mutagenicity, Ames/micronucleus/aberration tests
# Assay: CCRIS mutagenicity studies
# [1] = Test System: AMES SALMONELLA TYPHIMURIUM, Strain/Indicator: TA98, Metabolic Activation: HAMSTER, LIVER, S-9, AROCLOR 1254 (10%), Method: PREINCUBATION
# [2] = Test System: AMES SALMONELLA TYPHIMURIUM, Strain/Indicator: TA98, Metabolic Activation: NONE, Method: PREINCUBATION
# [3] = Test System: AMES SALMONELLA TYPHIMURIUM, Strain/Indicator: TA98, Metabolic Activation: RAT, LIVER, S-9, AROCLOR 1254 (10%), Method: PREINCUBATION
# [4] = Test System: AMES SALMONELLA TYPHIMURIUM, Strain/Indicator: TA100, Metabolic Activation: NONE, Method: PREINCUBATION
# [5] = Test System: AMES SALMONELLA TYPHIMURIUM, Strain/Indicator: TA100, Metabolic Activation: RAT, LIVER, S-9, AROCLOR 1254 (10%), Method: PREINCUBATION
# [6] = Test System: AMES SALMONELLA TYPHIMURIUM, Strain/Indicator: TA1537, Metabolic Activation: HAMSTER, LIVER, S-9, AROCLOR 1254 (10%), Method: PREINCUBATION
# [7] = Test System: AMES SALMONELLA TYPHIMURIUM, Strain/Indicator: TA1537, Metabolic Activation: NONE, Method: PREINCUBATION
# [8] = Test System: AMES SALMONELLA TYPHIMURIUM, Strain/Indicator: TA1537, Metabolic Activation: RAT, LIVER, S-9, AROCLOR 1254 (10%), Method: PREINCUBATION
smiles,measurement,setting,value
C1CCC(NC2CCCCC2)CC1,mutagenic call,"Test System: AMES SALMONELLA TYPHIMURIUM, Strain/Indicator: TA97, Metabolic Activation: HAMSTER, LIVER, S-9, AROCLOR 1254 (10%), Method: PREINCUBATION",inactive; negative
same,mutagenic call,"Test System: AMES SALMONELLA TYPHIMURIUM, Strain/Indicator: TA97, Metabolic Activation: NONE, Method: PREINCUBATION",inactive; negative
same,mutagenic call,"Test System: AMES SALMONELLA TYPHIMURIUM, Strain/Indicator: TA97, Metabolic Activation: RAT, LIVER, S-9, AROCLOR 1254 (10%), Method: PREINCUBATION",inactive; negative
same,mutagenic call,[1],inactive; negative
same,mutagenic call,[2],inactive; negative
same,mutagenic call,"Test System: AMES SALMONELLA TYPHIMURIUM, Strain/Indicator: TA98, Metabolic Activation: RAT LIVER S-9, PHENOBARBITAL AND BETA-NAPHTHOFLAVONE, Method: PREINCUBATION",inactive; negative
same,mutagenic call,[3],inactive; negative
same,mutagenic call,[4],inactive; negative
same,mutagenic call,"Test System: AMES SALMONELLA TYPHIMURIUM, Strain/Indicator: TA100, Metabolic Activation: RAT LIVER S-9, PHENOBARBITAL AND BETA-NAPHTHOFLAVONE, Method: PREINCUBATION",inactive; negative
same,mutagenic call,[5],inactive; negative
same,mutagenic call,"Test System: AMES SALMONELLA TYPHIMURIUM, Strain/Indicator: TA1535, Metabolic Activation: RAT LIVER S-9, PHENOBARBITAL AND BETA-NAPHTHOFLAVONE, Method: PREINCUBATION",inactive; negative
same,mutagenic call,[6],inactive; negative
same,mutagenic call,[7],inactive; negative
same,mutagenic call,"Test System: AMES SALMONELLA TYPHIMURIUM, Strain/Indicator: TA1537, Metabolic Activation: RAT LIVER S-9, PHENOBARBITAL AND BETA-NAPHTHOFLAVONE, Method: PREINCUBATION",inactive; negative
same,mutagenic call,[8],inactive; negative
same,mutagenic call,"Test System: E.COLI, Strain/Indicator: WP2UVRA/PKM101, Metabolic Activation: NONE, Method: PREINCUBATION",inactive; negative
same,mutagenic call,"Test System: E.COLI, Strain/Indicator: WP2UVRA/PKM101, Metabolic Activation: RAT LIVER S-9, PHENOBARBITAL AND BETA-NAPHTHOFLAVONE, Method: PREINCUBATION",inactive; negative
CSC1=N[C@@](C)(c2ccccc2)C(=O)N1Nc1ccccc1,mutagenic call,"End Point: In vitro chromosomal aberrations, Test System: Human peripheral blood lymphocytes, Metabolic Activation: None",active; positive
same,mutagenic call,"End Point: In vitro chromosomal aberrations, Test System: Human peripheral blood lymphocytes, Metabolic Activation: S-9",active; positive
same,mutagenic call,"End Point: In vivo micronucleus, Test System: Bone marrow polychromatic erythrocytes, Species: Mouse, Strain/Sex: CD-1/Male and female, Route: Intraperitoneal",inactive; negative
same,mutagenic call,"End Point: UDS, Test System: Rat hepatocytes, Species: Wistar/Male, Method: Autoradiography",inactive; negative. (higher doses too toxic to score)
same,mutagenic call,"Test System: Ames Salmonella typhimurium, Strain/Indicator: TA98, Metabolic Activation: None, Method: Plate incorporation and preincubation",inactive; negative
same,mutagenic call,"Test System: Ames Salmonella typhimurium, Strain/Indicator: TA98, Metabolic Activation: Rat, Liver, S-9, Method: Plate incorporation and preincubation",inactive; negative
same,mutagenic call,"Test System: Ames Salmonella typhimurium, Strain/Indicator: TA100, Metabolic Activation: None, Method: Plate incorporation and preincubation",inactive; negative
same,mutagenic call,"Test System: Ames Salmonella typhimurium, Strain/Indicator: TA100, Metabolic Activation: Rat, Liver, S-9, Method: Plate incorporation and preincubation",inactive; negative
same,mutagenic call,"Test System: Ames Salmonella typhimurium, Strain/Indicator: TA102, Metabolic Activation: None, Method: Plate incorporation and preincubation",inactive; negative
same,mutagenic call,"Test System: Ames Salmonella typhimurium, Strain/Indicator: TA102, Metabolic Activation: Rat, Liver, S-9, Method: Plate incorporation and preincubation",inactive; negative
same,mutagenic call,"Test System: Ames Salmonella typhimurium, Strain/Indicator: TA1535, Metabolic Activation: None, Method: Plate incorporation and preincubation",inactive; negative
same,mutagenic call,"Test System: Ames Salmonella typhimurium, Strain/Indicator: TA1535, Metabolic Activation: Rat, Liver, S-9, Method: Plate incorporation and preincubation",inactive; negative
same,mutagenic call,"Test System: Ames Salmonella typhimurium, Strain/Indicator: TA1537, Metabolic Activation: None, Method: Plate incorporation and preincubation",inactive; negative
same,mutagenic call,"Test System: Ames Salmonella typhimurium, Strain/Indicator: TA1537, Metabolic Activation: Rat, Liver, S-9, Method: Plate incorporation and preincubation",inactive; negative
same,mutagenic call,"Test System: Mouse lymphoma, Strain/Indicator: L5178Y (tk+/tk-), Metabolic Activation: None, Method: Microtiter fluctuation",inactive; negative
same,mutagenic call,"Test System: Mouse lymphoma, Strain/Indicator: L5178Y (tk+/tk-), Metabolic Activation: S-9, Method: Microtiter fluctuation",active; positive. (increase in small colony mutant frequency indicates clastogenicity)
O=[N+]([O-])c1ccc2c(c1)CCc1ccccc1-2,mutagenic call,"Test System: AMES SALMONELLA TYPHIMURIUM, Strain/Indicator: TA98(1,8-DNP6), Metabolic Activation: NONE, Method: STANDARD PLATE",active; positive
same,mutagenic call,"Test System: AMES SALMONELLA TYPHIMURIUM, Strain/Indicator: TA98(NR), Metabolic Activation: NONE, Method: STANDARD PLATE",active; positive
same,mutagenic call,"Test System: AMES SALMONELLA TYPHIMURIUM, Strain/Indicator: TA98, Metabolic Activation: NONE, Method: STANDARD PLATE",active; positive
CC(C)CN,mutagenic call,[1],inactive; negative
same,mutagenic call,[2],inactive; negative
same,mutagenic call,[3],inactive; negative
same,mutagenic call,"Test System: AMES SALMONELLA TYPHIMURIUM, Strain/Indicator: TA100, Metabolic Activation: HAMSTER, LIVER, S-9, AROCLOR 1254 (10%), Method: PREINCUBATION",inactive; negative
same,mutagenic call,[4],inactive; negative
same,mutagenic call,[5],inactive; negative
same,mutagenic call,"Test System: AMES SALMONELLA TYPHIMURIUM, Strain/Indicator: TA1535, Metabolic Activation: HAMSTER, LIVER, S-9, AROCLOR 1254 (10%), Method: PREINCUBATION",inactive; negative
same,mutagenic call,"Test System: AMES SALMONELLA TYPHIMURIUM, Strain/Indicator: TA1535, Metabolic Activation: NONE, Method: PREINCUBATION",inactive; negative
same,mutagenic call,"Test System: AMES SALMONELLA TYPHIMURIUM, Strain/Indicator: TA1535, Metabolic Activation: RAT, LIVER, S-9, AROCLOR 1254 (10%), Method: PREINCUBATION",inactive; negative
same,mutagenic call,[6],inactive; negative
same,mutagenic call,[7],inactive; negative
same,mutagenic call,[8],inactive; negative
